Experimental data published in ChEMBL document CHEMBL3813683, “Design, synthesis and anti-cancer activity evaluation of podophyllotoxin-norcantharidin hybrid drugs” (Bioorg Med Chem Lett, 2016).
One block for each compound: values may come before it. Active and inactive are the calls of the source. No cut-off for these calls is given here.

Experiments:
MCF7 [1] = assay: Cell cycle arrest in human MCF7 cells assessed as accumulation at G0/G1 phase at 8 uM after 24 hrs by propidium iodide staining-based flow cytometry (reference value: 64.68 to 80.32%); assay type: functional
MCF7 [2] = assay: Cell cycle arrest in human MCF7 cells assessed as accumulation at S phase at 2 uM after 24 hrs by propidium iodide staining-based flow cytometry (reference value: 15.95 to 25.74%); assay type: functional
MCF7 [3] = assay: Cell cycle arrest in human MCF7 cells assessed as accumulation at S phase at 4 uM after 24 hrs by propidium iodide staining-based flow cytometry (reference value: 15.95 to 25.74%); assay type: functional
MCF7 [4] = assay: Cell cycle arrest in human MCF7 cells assessed as accumulation at S phase at 8 uM after 24 hrs by propidium iodide staining-based flow cytometry (reference value: 15.95 to 25.74%); assay type: functional
MCF7 [5] = assay: Cell cycle arrest in human MCF7 cells assessed as accumulation at G2/M phase at 2 uM after 24 hrs by propidium iodide staining-based flow cytometry (reference value: 3.73 to 10.75%); assay type: functional
MCF7 [6] = assay: Cell cycle arrest in human MCF7 cells assessed as accumulation at G2/M phase at 4 uM after 24 hrs by propidium iodide staining-based flow cytometry (reference value: 3.73 to 10.75%); assay type: functional
MCF7 [7] = assay: Cell cycle arrest in human MCF7 cells assessed as accumulation at G2/M phase at 8 uM after 24 hrs by propidium iodide staining-based flow cytometry (reference value: 3.73 to 10.75%); assay type: functional
MCF7 [8] = assay: Cytotoxicity against human MCF7 cells after 36 hrs by MTT assay; assay type: functional, cell-based; details: MCF7, 36 h
A549 = assay: Cytotoxicity against human A549 cells after 36 hrs by MTT assay; assay type: functional, cell-based; details: A549, 36 h
HeLa = assay: Cytotoxicity against human HeLa cells after 36 hrs by MTT assay; assay type: functional, cell-based
[9] = Cytotoxicity against HEK293T cells after 36 hrs by MTT assay; assay type: cell-based; details: Homo sapiens, HEK-293T
MCF7 [10] = assay: Induction of apoptosis in human MCF7 cells after 24 hrs by Annexin V-FITC/propidium iodide staining-based flow cytometry; assay type: functional, cell-based
MCF7 [11] = assay: Induction of apoptosis in human MCF7 cells assessed as necrotic cells at 1 uM after 24 hrs by Annexin V-FITC/propidium iodide staining-based flow cytometry (reference value: 0.021 to 3.8%); assay type: functional
MCF7 [12] = assay: Induction of apoptosis in human MCF7 cells assessed as necrotic cells at 2 uM after 24 hrs by Annexin V-FITC/propidium iodide staining-based flow cytometry (reference value: 0.021 to 3.8%); assay type: functional
MCF7 [13] = assay: Induction of apoptosis in human MCF7 cells assessed as necrotic cells at 4 uM after 24 hrs by Annexin V-FITC/propidium iodide staining-based flow cytometry (reference value: 0.021 to 3.8%); assay type: functional
MCF7 [14] = assay: Induction of apoptosis in human MCF7 cells assessed as necrotic cells at 8 uM after 24 hrs by Annexin V-FITC/propidium iodide staining-based flow cytometry (reference value: 0.021 to 3.8%); assay type: functional
MCF7 [15] = assay: Induction of apoptosis in human MCF7 cells assessed as late apoptotic cells at 1 uM after 24 hrs by Annexin V-FITC/propidium iodide staining-based flow cytometry (reference value: 5.92 to 9.33%); assay type: functional
MCF7 [16] = assay: Cell cycle arrest in human MCF7 cells assessed as accumulation at G0/G1 phase at 2 uM after 24 hrs by propidium iodide staining-based flow cytometry (reference value: 64.68 to 80.32%); assay type: functional
MCF7 [17] = assay: Cell cycle arrest in human MCF7 cells assessed as accumulation at G0/G1 phase at 4 uM after 24 hrs by propidium iodide staining-based flow cytometry (reference value: 64.68 to 80.32%); assay type: functional
MCF7 [18] = assay: Induction of apoptosis in human MCF7 cells assessed as late apoptotic cells at 2 uM after 24 hrs by Annexin V-FITC/propidium iodide staining-based flow cytometry (reference value: 5.92 to 9.33%); assay type: functional
MCF7 [19] = assay: Induction of apoptosis in human MCF7 cells assessed as late apoptotic cells at 4 uM after 24 hrs by Annexin V-FITC/propidium iodide staining-based flow cytometry (reference value: 5.92 to 9.33%); assay type: functional
MCF7 [20] = assay: Induction of apoptosis in human MCF7 cells assessed as late apoptotic cells at 8 uM after 24 hrs by Annexin V-FITC/propidium iodide staining-based flow cytometry (reference value: 5.92 to 9.33%); assay type: functional
MCF7 [21] = assay: Induction of apoptosis in human MCF7 cells assessed as early apoptotic cells at 1 uM after 24 hrs by Annexin V-FITC/propidium iodide staining-based flow cytometry (reference value: 2.45 to 6.92%); assay type: functional
MCF7 [22] = assay: Induction of apoptosis in human MCF7 cells assessed as early apoptotic cells at 2 uM after 24 hrs by Annexin V-FITC/propidium iodide staining-based flow cytometry (reference value: 2.45 to 6.92%); assay type: functional
MCF7 [23] = assay: Induction of apoptosis in human MCF7 cells assessed as early apoptotic cells at 4 uM after 24 hrs by Annexin V-FITC/propidium iodide staining-based flow cytometry (reference value: 2.45 to 6.92%); assay type: functional
MCF7 [24] = assay: Induction of apoptosis in human MCF7 cells assessed as early apoptotic cells at 8 uM after 24 hrs by Annexin V-FITC/propidium iodide staining-based flow cytometry (reference value: 2.45 to 6.92%); assay type: functional
MCF7 [25] = assay: Induction of apoptosis in human MCF7 cells assessed as viable cells at 1 uM after 24 hrs by Annexin V-FITC/propidium iodide staining-based flow cytometry (reference value: 80 to 91.6%); assay type: functional; details: MCF7, 24 h, read-out: Activity
MCF7 [26] = assay: Induction of apoptosis in human MCF7 cells assessed as viable cells at 2 uM after 24 hrs by Annexin V-FITC/propidium iodide staining-based flow cytometry (reference value: 80 to 91.6%); assay type: functional; details: MCF7, 24 h, read-out: Activity
MCF7 [27] = assay: Induction of apoptosis in human MCF7 cells assessed as viable cells at 4 uM after 24 hrs by Annexin V-FITC/propidium iodide staining-based flow cytometry (reference value: 80 to 91.6%); assay type: functional; details: MCF7, 24 h, read-out: Activity
MCF7 [28] = assay: Induction of apoptosis in human MCF7 cells assessed as viable cells at 8 uM after 24 hrs by Annexin V-FITC/propidium iodide staining-based flow cytometry (reference value: 80 to 91.6%); assay type: functional; details: MCF7, 24 h, read-out: Activity
MCF7 [29] = assay: Upregulation of CDK1 in human MCF7 cells at 2 to 8 uM after 24 hrs by Western blot analysis; assay type: functional, cell-based
MCF7 [30] = assay: Downregulation of cyclin B1 in human MCF7 cells at 2 to 8 uM after 24 hrs by Western blot analysis; assay type: functional, cell-based
MCF7 [31] = assay: Induction of apoptosis in human MCF7 cells assessed as increase in PARP cleavage at 8 uM after 24 hrs by Western blot analysis; assay type: functional, cell-based
Tubulin (Homo sapiens) [32] = biological target: T1, Tubulin (Homo sapiens) (UniProt P68371+Q9H4B7+P0DPH7+P68366+Q13509+Q71U36+P04350+Q3ZCM7+P07437+P68363+Q9BQE3+Q6PEY2+Q13885+Q9BVA1+Q9BUF5); assay: Inhibition of tubulin polymerization in human MCF7 cells assessed as alteration of interphase microtubule network at 4 uM after 24 hrs by DAPI staining-based confocal microscopic analysis; assay type: cell-based
Tubulin (Homo sapiens) [33] = biological target: T1, Tubulin (Homo sapiens); assay: Inhibition of tubulin polymerization in human MCF7 cells assessed as alteration of interphase microtubule network at 2 uM after 24 hrs by DAPI staining-based confocal microscopic analysis; assay type: cell-based

SMILES: COc1cc(C2c3cc4c(cc3[C@H](OC(=O)C(Cc3ccccc3)N3C(=O)C5C6CCC(O6)C5C3=O)[C@H]3COC(=O)[C@H]23)OCO4)cc(OC)c1OC (stereo not given in full)
- Activity (MCF7 [1]): 8.17%
- Activity (MCF7 [2]): 45.05%
- Activity (MCF7 [3]): 43.82%
- Activity (MCF7 [4]): 32.22%
- Activity (MCF7 [5]): 32.33%
- Activity (MCF7 [6]): 38.94%
- Activity (MCF7 [7]): 59.61%
- IC50 (MCF7 [8]): 880 nM
- IC50 (A549): 7.82 µM
- IC50 (HeLa): 3.21 µM
- IC50 [9]: 54.4 µM
- Activity (MCF7 [10]): Dose-dependent effect
- Activity (MCF7 [11]): 0.021%
- Activity (MCF7 [12]): 0%
- Activity (MCF7 [13]): 0.03%
- Activity (MCF7 [14]): 0.022%
- Activity (MCF7 [15]): 14.2%
- Activity (MCF7 [16]): 22.62%
- Activity (MCF7 [17]): 17.24%
- Activity (MCF7 [18]): 4.51%
- Activity (MCF7 [19]): 6.15%
- Activity (MCF7 [20]): 6.97%
- Activity (MCF7 [21]): 50.3%
- Activity (MCF7 [22]): 80.1%
- Activity (MCF7 [23]): 73.1%
- Activity (MCF7 [24]): 61.9%
- viability at 1 µM (MCF7 [25]): 35.4%
- viability at 2 µM (MCF7 [26]): 15.4%
- viability at 4 µM (MCF7 [27]): 20.7%
- viability at 8 µM (MCF7 [28]): 31.1%
- Activity (MCF7 [29]): inactive
- Activity (MCF7 [30]): Active
- Activity (MCF7 [31]): Active
- inhibition (Tubulin (Homo sapiens) [32]): Active

- inhibition (Tubulin (Homo sapiens) [33]): inactive
SMILES: CC(=O)O[C@H]1C(=O)[C@@]2(C)[C@H]([C@H](OC(=O)c3ccccc3)[C@]3(O)C[C@H](OC(=O)[C@H](O)[C@@H](NC(=O)c4ccccc4)c4ccccc4)C(C)=C1C3(C)C)[C@]1(OC(C)=O)CO[C@@H]1C[C@@H]2O
